Target: human GLP-1R (Homo sapiens, UniProt P43220, G168S)
Assay: CHO GLP-1R Clone H6—Assay 1: HTRF cAMP cell-based functional agonist assay (high GLP-1R density)
Details: for EC50: read-out: Assay 1 EC50, CHO GLP-1R Clone H6, cAMP HTRF, geometric mean; for Emax: read-out: Assay 1 Emax (%), CHO GLP-1R Clone H6
[1] = relative to saturating concentration of full agonist GLP-1 (1 μM), arithmetic mean

Sequence of human GLP-1R (P43220 24-463 G168S limits assumed): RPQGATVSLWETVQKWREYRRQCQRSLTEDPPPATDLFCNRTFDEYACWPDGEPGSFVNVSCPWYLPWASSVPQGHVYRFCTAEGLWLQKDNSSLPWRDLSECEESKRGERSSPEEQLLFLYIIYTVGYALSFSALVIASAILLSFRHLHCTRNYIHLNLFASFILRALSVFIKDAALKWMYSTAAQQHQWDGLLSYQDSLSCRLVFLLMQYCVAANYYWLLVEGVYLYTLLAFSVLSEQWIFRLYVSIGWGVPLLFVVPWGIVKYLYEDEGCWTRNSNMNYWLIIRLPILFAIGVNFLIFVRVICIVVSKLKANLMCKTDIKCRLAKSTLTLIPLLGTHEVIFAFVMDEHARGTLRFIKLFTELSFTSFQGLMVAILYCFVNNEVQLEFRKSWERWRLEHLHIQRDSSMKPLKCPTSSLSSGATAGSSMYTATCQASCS

Cc1nnc(CCn2c(CN3CCC(c4cccc(OCc5ccc(Cl)cc5F)n4)CC3)nc3ccc(C(=O)O)cc32)o1 [Example 10A-28]
EC50: 190 nM
Emax [1]: 71%

Cn1cc(CCn2c(CN3CCC(c4cccc(OCc5ccc(Cl)cc5F)n4)CC3)nc3ccc(C(=O)O)cc32)cn1 [Example 11A-32, 2-[(4-{6-[(4-chloro-2-fluorobenzyl)oxy]pyridin-2-yl}piperidin-1-yl)methyl]-1-[2-(1-methyl-1H-pyrazol-4-yl)ethyl]-1H-benzimidazole-6-carboxylic acid]
EC50: 87 nM
Emax [1]: 83%

Cn1cnnc1CCn1c(CN2CCC(c3cccc(OCc4ccc(Cl)cc4F)n3)CC2)nc2ccc(C(=O)O)cc21 [Example 11A-53, 2-[(4-{6-[(4-chloro-2-fluorobenzyl)oxy]pyridin-2-yl}piperidin-1-yl)methyl]-1-[2-(4-methyl-4H-1,2,4-triazol-3-yl)ethyl]-1H-benzimidazole-6-carboxylic acid]
EC50: 450 nM
Emax [1]: 71%

N#Cc1ccc(COc2nc(C3CCN(Cc4nc5ccc(C(=O)O)cc5n4CC4CCOC4)CC3)ccc2F)cc1 (single isomer, unassigned; enantiomer 1) [Example 14A-05, 2-[(4-{6-](4-cyanobenzyl)oxy]-5-fluoropyridin-2-yl}piperidin-1-yl)methyl]-1-(tetrahydrofuran-3-ylmethyl)-1H-benzimidazole-6-carboxylic acid,enantiomer 1]
Assay 1 Emax (%) (CHO GLP-1R Clone H6, relative to saturating concentration of full agonist GLP-1 (1 μM), arithmetic mean): 82%

COCCn1c(CN2CCN(c3cccc(OCc4ccc(Cl)cc4F)n3)C[C@@H]2C(C)C)nc2ccc(C(=O)O)cc21 [Example 12A-05, 2-{[(2S)-4-{6-[(4-chloro-2-fluorobenzyl)oxy]pyridin-2-yl}-2-(propan-2-yl)piperazin-1-yl]methyl}-1-(2-methoxyethyl)-1H-benzimidazole-6-carboxylic acid]
EC50: 1300 nM
Emax [1]: 42%

COCCn1c(CN2CCC(c3cccc(OCc4ccc(Cl)cc4F)n3)CC2)nc2ncc(C(=O)O)c(C)c21 [Example 2A-11, 2-[(4-{6-[(4-chloro-2-fluorobenzyl)oxy]pyridin-2-yl}piperidin-1-yl)methyl]-1-(2-methoxyethyl)-7-methyl-1H-imidazo[4,5-b]pyridine-6-carboxylic acid]
EC50: 210 nM
Emax [1]: 79%

CC(C)c1cc(Cn2c(CN3CCC(c4cccc(OCc5ccc(Cl)cc5F)n4)CC3)nc3ccc(C(=O)O)cc32)on1 [Example 11A-06, 2-[(4-{6-[(4-chloro-2-fluorobenzyl)oxy]pyridin-2-yl}piperidin-1-yl)methyl]-1-{[3-(propan-2-yl)-1,2-oxazol-5-yl]methyl}-1H-benzimidazole-6-carboxylic acid]
EC50: > 20000 nM

Cc1nnc(Cn2c(CN3CCC(c4cccc(OCc5ccc(Cl)cc5F)n4)CC3)nc3ccc(C(=O)O)cc32)o1 [Example 10A-29]
EC50: 390 nM
Emax [1]: 82%

COCCn1c(CN2CCN(c3cccc(OCc4ccc(Cl)cc4F)n3)C[C@@H]2C2CC2)nc2ccc(C(=O)O)cc21 [Example 12A-04, 2-{[(2S)-4-{6-[(4-chloro-2-fluorobenzyl)oxy]pyridin-2-yl}-2-cyclopropylpiperazin-1-yl]methyl}-1-(2-methoxyethyl)-1H-benzimidazole-6-carboxylic acid]
EC50: 250 nM
Emax [1]: 64%

COCC1(Cn2c(CN3CCC(c4cccc(OCc5ccc(Cl)cc5F)n4)CC3)nc3ccc(C(=O)O)cc32)CCC1 [Example 11A-74, 2-[(4-{6-[(4-chloro-2-fluorobenzyl)oxy]pyridin-2-yl}piperidin-1-yl)methyl]-1-{[1-(methoxymethyl)cyclobutyl]methyl}-1H-benzimidazole-6-carboxylic acid]
EC50: 560 nM
Emax [1]: 72%

Cn1c(CN2CCC(c3cccc(OCc4ccc(C(F)(F)F)cc4)n3)CC2)nc2ccc(C(=O)O)cc21 [Example 9A-13, 1-methyl-2-{[4-(6-{[4-(trifluoromethyl)benzyl]oxy}pyridin-2-yl)piperidin-1-yl]methyl}-1H-benzimidazole-6-carboxylic acid]
EC50: 170 nM
Emax [1]: 68%

Cn1c(CN2CCC(c3cccc(OCc4ccccc4OC(F)(F)F)n3)CC2)nc2ccc(C(=O)O)cc21 [Example 9A-10, 1-methyl-2-{[4-(6-{[2-(trifluoromethoxy)benzyl]oxy}pyridin-2-yl)piperidin-1-yl]methyl}-1H-benzimidazole-6-carboxylic acid]
EC50: 4500 nM
Emax [1]: 48%

Cc1nc2nc(CN3CCC(c4cccc(OCc5ccc(Cl)cc5F)n4)CC3)n(C)c2cc1C(=O)O [Example 2A-12, 2-[(4-{6-[(4-chloro-2-fluorobenzyl)oxy]pyridin-2-yl}piperidin-1-yl)methyl]-1,5-dimethyl-1H-imidazo[4,5-b]pyridine-6-carboxylic acid]
EC50: 340 nM
Emax [1]: 74%

O=C(O)c1ccc2nc(CN3CCC(c4cccc(OCc5ccc(Cl)cc5F)n4)CC3)n(Cc3n[nH]c(C4CC4)n3)c2c1 [Example 11A-64, 2-[(4-{6-[(4-chloro-2-fluorobenzyl)oxy]pyridin-2-yl}piperidin-1-yl)methyl]-1-[(5-cyclopropyl-1H-1,2,4-triazol-3-yl)methyl]-1H-benzimidazole-6-carboxylic acid]
EC50: 2900 nM
Emax [1]: 88%

CN1CCC(CCn2c(CN3CCC(c4cccc(OCc5ccc(Cl)cc5F)n4)CC3)nc3ccc(C(=O)O)cc32)CC1 [Example 11A-07, 2-[(4-{6-[(4-chloro-2-fluorobenzyl)oxy]pyridin-2-yl}piperidin-1-yl)methyl]-1-[2-(1-methylpiperidin-4-yl)ethyl]-1H-benzimidazole-6-carboxylic acid]
EC50: > 20000 nM

CN1CC(Cn2c(CN3CCC(c4cccc(OCc5ccc(Cl)cc5F)n4)CC3)nc3ccc(C(=O)O)cc32)C1 [Example 10A-19]
Emax [1]: 100%

CC(C)(C)n1cnnc1Cn1c(CN2CCC(c3cccc(OCc4ccc(Cl)cc4F)n3)CC2)nc2ccc(C(=O)O)cc21 [Example 10A-46]
EC50: 1700 nM
Emax [1]: 80%

CCc1nc(Cn2c(CN3CCC(c4cccc(OCc5ccc(Cl)cc5F)n4)CC3)nc3ccc(C(=O)O)cc32)no1 [Example 10A-51]
EC50: 390 nM
Emax [1]: 72%

CN(C)CCn1c(CN2CCC(c3cccc(OCc4ccc(Cl)cc4F)n3)CC2)nc2ccc(C(=O)O)cc21 [Example 10A-11]
EC50: 75 nM
Emax [1]: 69%

CN1CCCC(Cn2c(CN3CCC(c4cccc(OCc5ccc(Cl)cc5F)n4)CC3)nc3ccc(C(=O)O)cc32)C1 (stereo not shown) [Example 11A-04, 2-[(4-{6-[(4-chloro-2-fluorobenzyl)oxy]pyridin-2-yl}piperidin-1-yl)methyl]-1-[(1-methylpiperidin-3-yl)methyl]-1H-benzimidazole-6-carboxylic acid]
EC50: > 19000 nM
Emax [1]: 100%

Cn1c(CN2CCC(c3cccc(OCc4cccc(C#N)c4)n3)CC2)nc2ccc(C(=O)O)cc21 [Example 9A-12, 2-[(4-{6-[(3-cyanobenzyl)oxy]pyridin-2-yl}piperidin-1-yl)methyl]-1-methyl-1H-benzimidazole-6-carboxylic acid]
EC50: > 17000 nM
Emax [1]: 100%

COCc1cc(Cn2c(CN3CCC(c4cccc(OCc5ccc(Cl)cc5F)n4)CC3)nc3ccc(C(=O)O)cc32)[nH]n1 [Example 11A-62, 2-[(4-{6-[(4-chloro-2-fluorobenzyl)oxy]pyridin-2-yl}piperidin-1-yl)methyl]-1-{[3-(methoxymethyl)-1H-pyrazol-5-yl]methyl}-1H-benzimidazole-6-carboxylic acid]
EC50: 2200 nM
Emax [1]: 87%

COC1CCN(CCn2c(CN3CCC(c4cccc(OCc5ccc(Cl)cc5F)n4)CC3)nc3ccc(C(=O)O)cc32)CC1 [Example 11A-56, 2-[(4-{6-[(4-chloro-2-fluorobenzyl)oxy]pyridin-2-yl}piperidin-1-yl)methyl]-1-[2-(4-methoxypiperidin-1-yl)ethyl]-1H-benzimidazole-6-carboxylic acid]
EC50: 1100 nM
Emax [1]: 47%

O=C(O)c1ccc2nc(CN3CCC(c4cccc(OCc5ccc(Cl)cc5F)n4)CC3)n(CCO)c2c1 [Example 10A-50]
EC50: 290 nM
Emax [1]: 64%

COCCn1c(CN2CCN(c3cccc(OCc4ccc(Cl)cc4F)n3)CC2(C)C)nc2ccc(C(=O)O)cc21 [Example 12A-06, 2-[(4-{6-[(4-chloro-2-fluorobenzyl)oxy]pyridin-2-yl}-2,2-dimethylpiperazin-1-yl)methyl]-1-(2-methoxyethyl)-1H-benzimidazole-6-carboxylic acid]
EC50: 510 nM
Emax [1]: 64%

Cn1cnc(Cn2c(CN3CCC(c4cccc(OCc5ccc(Cl)cc5F)n4)CC3)nc3ccc(C(=O)O)cc32)c1 [Example 10A-30]
EC50: 550 nM
Emax [1]: 71%

CCc1noc(Cn2c(CN3CCC(c4cccc(OCc5ccc(Cl)cc5F)n4)CC3)nc3ccc(C(=O)O)cc32)n1 [Example 10A-52]
EC50: 1300 nM
Emax [1]: 79%

COCCN1CCC(Cn2c(CN3CCC(c4cccc(OCc5ccc(Cl)cc5F)n4)CC3)nc3ccc(C(=O)O)cc32)CC1 [Example 11A-12, 2-[(4-{6-[(4-chloro-2-fluorobenzyl)oxy]pyridin-2-yl}piperidin-1-yl)methyl]-1-{[1-(2-methoxyethyl)piperidin-4-yl]methyl}-1H-benzimidazole-6-carboxylic acid]
EC50: > 20000 nM

COCCn1c(CN2CCN(c3cccc(OCc4ccc(Cl)cc4F)n3)CC23CC3)nc2ccc(C(=O)O)cc21 [Example 12A-03, 2-[(7-{6-[(4-chloro-2-fluorobenzyl)oxy]pyridin-2-yl}-4,7-diazaspiro[2.5]oct-4-yl)methyl]-1-(2-methoxyethyl)-1H-benzimidazole-6-carboxylic acid]
EC50: 600 nM
Emax [1]: 70%

Cc1cc(Cn2c(CN3CCC(c4cccc(OCc5ccc(Cl)cc5F)n4)CC3)nc3ccc(C(=O)O)cc32)on1 [Example 11A-47, 2-[(4-{6-[(4-chloro-2-fluorobenzyl)oxy]pyridin-2-yl}piperidin-1-yl]methyl]-1-[(3-methyl-1,2-oxazol-5-yl)methyl]-1H-benzimidazole-6-carboxylic acid]
EC50: 320 nM
Emax [1]: 79%

Source: patent US10208019B2, “GLP-1 receptor agonists and uses thereof” (Pfizer Inc., priority 2016, dated 2019)
